Laboratory results taken from patent US20240208970A1, “SUBSTITUTED HYDANTOIN COMPOUNDS, METHODS FOR PREPARATION THEREOF AND USE THEREOF IN THE TREATMENT AND/OR PREVENTION OF A CORONA VIRUS DISEASE” (priority 2021, published 2024).

Target: SARS-CoV-2 M^pro protease (Severe acute respiratory syndrome coronavirus 2 (2019-nCoV) (SARS-CoV-2), UniProt P0DTD1)
Experiment: biochemical
Format: biochemical
Details: Table 5A; M^pro 75 nM, substrate 10 μM

| SMILES | IC50 |
| --- | --- |
| Cc1ccncc1N1C(=O)NC2(CC(c3ccccc3)C2)C1=O (stereo not drawn) [Compound 11, 7-(4-methylpyridin-3-yl)-2-phenyl-5,7-diazaspiro[3.4]octane-6,8-dione] | 2300 nM |
| O=C1NC2(CC(C3CCC3)C2)C(=O)N1c1cncc(Br)c1 (stereo not drawn) [Compound 14, 7-(5-bromopyridin-3-yl)-2-cyclobutyl-5,7-diazaspiro[3.4]octane-6,8-dione] | 6000 nM |
| Cc1c(Br)cncc1N1C(=O)NC2(CC(c3ccccc3)C2)C1=O (stereo not drawn) [Compound 7, 7-(5-bromo-4-methylpyridin-3-yl)-2-phenyl-5,7-diazaspiro[3.4]octane-6,8-dione] | 2000 nM |
| CC(C)(C)C1CC2(C1)NC(=O)N(c1cncc(F)c1)C2=O (stereo not drawn) [Compound 12, 2-tert-butyl-7-(5-fluoropyridin-3-yl)-5,7-diazaspiro[3.4]octane-6,8-dione] | 5500 nM |

Same assay, conditions: Tables 5B-5E; M^pro 75 nM, substrate 10 μM

| SMILES | IC50 |
| --- | --- |
| O=C1CCCN1CN1C(=O)N(c2cncc3ccccc23)C(=O)C12CC(C1CCC1)C2 (stereo not drawn) [Compound 78, 2-cyclobutyl-7-(isoquinolin-4-yl)-5-((2-oxopyrrolidin-1-yl)methyl)-5,7-diazaspiro[3.4]octane-6,8-dione] | 3060 nM |
| O=C1NC2(CC(c3ccccc3Br)C2)C(=O)N1c1cncc2ccccc12 (single isomer, unassigned) [Compound 17, 2-(2-bromophenyl)-7-(isoquinolin-4-yl)-5,7-diazaspiro[3.4]octane-6,8-dione] | 79 nM |
| O=C1N(c2cncc3ccccc23)C(=O)C2(CC(C3CCC3)C2)N1Cc1ccccn1 (stereo not drawn) [Compound 76, 2-cyclobutyl-7-(isoquinolin-4-yl)-5-(pyridin-2-ylmethyl)-5,7-diazaspiro[3.4]octane-6,8-dione] | 2470 nM |
| O=C1NC2(CC(c3ccccc3F)C2)C(=O)N1c1cncc2ccccc12 (stereo not drawn) [Compound 19, 2-(2-fluorophenyl)-7-(isoquinolin-4-yl)-5,7-diazaspiro[3.4]octane-6,8-dione] | 326 nM |
| O=C1NC2(CC(c3ccccc3Cl)C2)C(=O)N1c1cnnc2ccccc12 (stereo not drawn) [Compound 94, 2-(2-chlorophenyl)-7-(cinnolin-4-yl)-5,7-diazaspiro[3.4]octane-6,8-dione] | 1800 nM |
| O=C1NC2(CC(c3ccccc3Cl)C2)C(=O)N1c1cccnn1 (stereo not drawn) [Compound 81, 2-(2-chlorophenyl)-7-(pyridazin-3-yl)-5,7-diazaspiro[3.4]octane-6,8-dione] | 419 nM |
| O=C1NC2(CC(c3cc(F)ccc3Cl)C2)C(=O)N1c1cncc2ccccc12 (single isomer, unassigned) [Compound 34, 2-(2-chloro-5-fluorophenyl)-7-(isoquinolin-4-yl)-5,7-diazaspiro[3.4]octane-6,8-dione] | 475 nM |
| O=C1NC2(CC(c3ccccc3Cl)C2)C(=O)N1c1cncc2nccn12 (stereo not drawn) [Compound 99, 2-(2-chlorophenyl)-7-(imidazo[1,2-a]pyrazin-5-yl)-5,7-diazaspiro[3.4]octane-6,8-dione] | 780 nM |
| O=C1NC2(CC(c3ccccc3Cl)C2)C(=O)N1c1cncc2[nH]c(=O)[nH]c12 (stereo not drawn) [Compound 98, 2-(2-chlorophenyl)-7-(2-oxo-2,3-dihydro-1H-imidazo[4,5-c]pyridin-7-yl)-5,7-diazaspiro[3.4]octane-6,8-dione] | 1380 nM |
| Cc1ccccc1C1CC2(C1)NC(=O)N(c1cncc3ccccc13)C2=O (stereo not drawn) [Compound 23, 7-(isoquinolin-4-yl)-2-(o-tolyl)-5,7-diazaspiro[3.4]octane-6,8-dione] | 925 nM |
| O=C1NC2(CC(c3cc(F)ccc3Cl)C2)C(=O)N1c1cncc2ccccc12 (single isomer, unassigned) [Compound 35, 2-(2-chloro-5-fluorophenyl)-7-(isoquinolin-4-yl)-5,7-diazaspiro[3.4]octane-6,8-dione] | 82 nM |
| O=C1NC2(CC(c3ccccc3Cl)C2)C(=O)N1c1cncc2nc[nH]c12 (stereo not drawn) [Compound 97, 2-(2-chlorophenyl)-7-(1H-imidazo[4,5-c]pyridin-7-yl)-5,7-diazaspiro[3.4]octane-6,8-dione] | 287 nM |
| O=C1NC2(CC(c3c(F)cccc3Cl)C2)C(=O)N1c1cncc2ccccc12 (single isomer, unassigned) [Compound 37, 2-(2-chloro-6-fluorophenyl)-7-(isoquinolin-4-yl)-5,7-diazaspiro[3.4]octane-6,8-dione] | 64 nM |
| O=C1NC2(CC(c3ccccc3F)C2)C(=O)N1c1cncc2ccccc12 (stereo not drawn) [Compound 18, 2-(2-fluorophenyl)-7-(isoquinolin-4-yl)-5,7-diazaspiro[3.4]octane-6,8-dione] | 335 nM |
| O=C1NC2(CC(c3cccc(Cl)c3)C2)C(=O)N1c1cncc2ccccc12 (stereo not drawn) [Compound 25, 2-(3-chlorophenyl)-7-(isoquinolin-4-yl)-5,7-diazaspiro[3.4]octane-6,8-dione] | 931 nM |
| O=C1N(c2cncc3ccccc23)C(=O)C2(CC(C3CCC3)C2)N1Cc1cc(Cl)nc(Cl)c1 (stereo not drawn) [Compound 71, 2-cyclobutyl-5-((2,6-dichloropyridin-4-yl)methyl)-7-(isoquinolin-4-yl)-5,7-diazaspiro[3.4]octane-6,8-dione] | 1070 nM |
| N#Cc1ccccc1C1CC2(C1)NC(=O)N(c1cncc3ccccc13)C2=O (stereo not drawn) [Compound 24, 2-(7-(isoquinolin-4-yl)-6,8-dioxo-5,7-diazaspiro[3.4]octan-2-yl)benzonitrile] | 86 nM |

| SMILES | IC50 |
| --- | --- |
| CN(C)c1ccncc1N1C(=O)NC2(CC(c3ccccc3Cl)C2)C1=O (stereo not drawn) [Compound 93, 2-(2-chlorophenyl)-7-(4-(dimethylamino)pyridin-3-yl)-5,7-diazaspiro[3.4]octane-6,8-dione] | 157 nM |
| O=C1NC2(CC(c3c(Cl)cccc3Cl)C2)C(=O)N1c1cncc2ccccc12 (single isomer, unassigned) [Compound 28, 2-(2,6-dichlorophenyl)-7-(isoquinolin-4-yl)-5,7-diazaspiro[3.4]octane-6,8-dione] | 291 nM |
| O=C1NC2(CC(c3ccc(F)cc3Cl)C2)C(=O)N1c1cncc2ccccc12 (stereo not drawn) [Compound 32, 2-(2-chloro-4-fluorophenyl)-7-(isoquinolin-4-yl)-5,7-diazaspiro[3.4]octane-6,8-dione] | 95 nM |
| CC1(c2ccccc2)CC2(C1)NC(=O)N(c1cncc3ccccc13)C2=O (single isomer, unassigned) [Compound 39, 7-(isoquinolin-4-yl)-2-methyl-2-phenyl-5,7-diazaspiro[3.4]octane-6,8-dione] | 926 nM |
| O=C1NC2(CC(c3ccccc3Cl)C2)C(=O)N1c1cncc2ccc(F)cc12 (stereo not drawn) [Compound 54, 2-(2-chlorophenyl)-7-(6-fluoroisoquinolin-4-yl)-5,7-diazaspiro[3.4]octane-6,8-dione] | 66 nM |
| CC1(c2ccc(F)cc2Cl)CC2(C1)NC(=O)N(c1cncc3ccccc13)C2=O (single isomer, unassigned) [Compound 84, 2-(2-chloro-4-fluorophenyl)-7-(isoquinolin-4-yl)-2-methyl-5,7-diazaspiro[3.4]octane-6,8-dione] | 806 nM |
| CC1(c2ccccc2)CC2(C1)NC(=O)N(c1cncc3ccccc13)C2=O (single isomer, unassigned) [Compound 38, 7-(isoquinolin-4-yl)-2-methyl-2-phenyl-5,7-diazaspiro[3.4]octane-6,8-dione] | 71 nM |
| O=C1NC2(CC(c3cc(F)c(F)cc3Cl)C2)C(=O)N1c1cncc2ccccc12 (stereo not drawn) [Compound 87, 2-(2-chloro-4,5-difluorophenyl)-7-(isoquinolin-4-yl)-5,7-diazaspiro[3.4]octane-6,8-dione] | 115 nM |
| Cc1ccnc(F)c1N1C(=O)NC2(CC(c3ccccc3Cl)C2)C1=O (stereo not drawn) [Compound 90, 2-(2-chlorophenyl)-7-(2-fluoro-4-methylpyridin-3-yl)-5,7-diazaspiro[3.4]octane-6,8-dione] | 223 nM |
| O=C1NC2(CC(c3ccsc3Cl)C2)C(=O)N1c1cncc2ccccc12 (single isomer, unassigned) [Compound 41, 2-(2-chlorothiophen-3-yl)-7-(isoquinolin-4-yl)-5,7-diazaspiro[3.4]octane-6,8-dione] | 81 nM |
| O=C1NC2(CC(c3sccc3Cl)C2)C(=O)N1c1cncc2ccccc12 (single isomer, unassigned) [Compound 43, 2-(3-chlorothiophen-2-yl)-7-(isoquinolin-4-yl)-5,7-diazaspiro[3.4]octane-6,8-dione] | 59 nM |
| CC1(c2ccccc2Cl)CC2(C1)NC(=O)N(c1cncc3ccccc13)C2=O (stereo not drawn) [Compound 95, 2-(2-chlorophenyl)-7-(isoquinolin-4-yl)-2-methyl-5,7-diazaspiro[3.4]octane-6,8-dione] | 69 nM |
| O=C1NC2(CC(c3sccc3Br)C2)C(=O)N1c1cncc2ccccc12 (single isomer, unassigned) [Compound 44, 2-(3-bromothiophen-2-yl)-7-(isoquinolin-4-yl)-5,7-diazaspiro[3.4]octane-6,8-dione] | 81 nM |
| O=C1NC2(CC(c3ccsc3Cl)C2)C(=O)N1c1cncc2ccccc12 (single isomer, unassigned) [Compound 40, 2-(2-chlorothiophen-3-yl)-7-(isoquinolin-4-yl)-5,7-diazaspiro[3.4]octane-6,8-dione] | 304 nM |
| CCN1C(=O)N(c2cncc3ccccc23)C(=O)C12CC(C1CCC1)C2 (stereo not drawn) [Compound 75, 2-cyclobutyl-5-ethyl-7-(isoquinolin-4-yl)-5,7-diazaspiro[3.4]octane-6,8-dione] | 2000 nM |
| N#CCN1C(=O)N(c2cncc3ccccc23)C(=O)C12CC(C1CCC1)C2 (stereo not drawn) [Compound 72, 2-(2-cyclobutyl-7-(isoquinolin-4-yl)-6,8-dioxo-5,7-diazaspiro[3.4]octan-5-yl)acetonitrile] | 1360 nM |
| O=C1NC2(CC(c3ccccc3Cl)C2)C(=O)N1c1cc(Br)cnc1F (stereo not drawn) [Compound 85, 7-(5-bromo-2-fluoropyridin-3-yl)-2-(2-chlorophenyl)-5,7-diazaspiro[3.4]octane-6,8-dione] | 323 nM |

Same assay, conditions: percent of control activity at 750 nM; read-out: % activity at 750 nM

| SMILES | activity at […] |
| --- | --- |
| O=C1NC2(CC(c3ccccc3Cl)C2)C(=O)N1c1c(Cl)ncc2ccccc12 (stereo not drawn) [Compound 86, 7-(3-chloroisoquinolin-4-yl)-2-(2-chlorophenyl)-5,7-diazaspiro[3.4]octane-6,8-dione] | 57% |
